The values below come from PubChem BioAssay (NCI).

Some test systems named below: SF-539 CNS; SK-MEL-28 melanoma; 786-0 renal; HOP-62 NSCLC; NCI-H522 lung; TK-10 renal; T-47D breast; CAKI-1 renal.
Common to all, as to experiment: inhibition of tumour cell growth, NCI panel, 48 h

Each structure is given as a SMILES string. Where “and” joins values, the source holds several entries; their conditions need not be identical. Equal entries are not always repeated.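 The compound was tested at five concentrations on cells cultured in 96-well plates, with a 48-hour exposure period. GI50 = concentration required for 50% inhibition of growth. Definition used: TGI = concentration required for complete inhibition of growth.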

Turning to `N#Cc1c(N)nc(N2CCOCC2)c(C#N)c1-c1c(Cl)cccc1Cl`, the GI50 was 12.2 µM with SF-539 CNS; 7.38 µM in the test on SK-MEL-28 melanoma; 12.9 µM with 786-0 renal; 3.52 µM in the test with HOP-62 NSCLC; 2.36 µM with NCI-H522 lung; 20.9 µM with TK-10 renal. The GI50 in the test with T-47D breast is 3.43 µM; with CAKI-1 renal, 2.24 µM. For the same compound, the TGI in the test with SF-539 CNS was 49.8 µM; in the test on SK-MEL-28 melanoma, 56 µM; with 786-0 renal, 36.7 µM; with HOP-62 NSCLC, 17.8 µM; in the test with NCI-H522 lung, 8.38 µM; with TK-10 renal, over 100 µM. The TGI was determined as 10.1 µM with T-47D breast and 12.2 µM in the test on CAKI-1 renal.
In the case of `COc1ccc2c(c1)nnc1c3cccnc3[nH]c21`, the GI50 was 0.642 µM and 0.428 µM in the test on SF-539 CNS; 11.8 µM and 11.2 µM in the test with SK-MEL-28 melanoma; 0.509 µM and 2.23 µM in the test with 786-0 renal; 5.47 µM and 26 µM with HOP-62 NSCLC; 1.09 µM with NCI-H522 lung; 4.52 µM with TK-10 renal. Further, the GI50 with T-47D breast is 0.492 µM and 0.224 µM; in the test on CAKI-1 renal it was 0.108 µM and 0.594 µM. For the same compound, the TGI was 1.62 µM and 1.87 µM in the test with SF-539 CNS; 50 µM and > 100 µM with SK-MEL-28 melanoma; 16.1 µM and > 100 µM in the test on HOP-62 NSCLC; 3 µM in the test with NCI-H522 lung; 22.6 µM in the test with TK-10 renal; 2.61 µM and 4.21 µM in the test on T-47D breast.
In the case of `COc1cnccc1Nc1nc(-c2nn(Cc3c(F)cc(OCCO)cc3F)c3ccccc23)ncc1OC`, the GI50 in the test on SF-539 CNS is 10.7 µM; in the test on SK-MEL-28 melanoma, 2.47 µM; with 786-0 renal, 1.76 µM; in the test on HOP-62 NSCLC, 2.46 µM; with NCI-H522 lung, 1.82 µM; in the test on TK-10 renal, 14.5 µM. In addition, the figures for the GI50 with T-47D breast and in the test with CAKI-1 renal were 16.5 µM and 11.9 µM, respectively. Besides, the TGI in the test with SF-539 CNS is 22.9 µM; in the test with SK-MEL-28 melanoma it was 9.66 µM; with 786-0 renal, 5.44 µM; in the test with HOP-62 NSCLC it was 8.32 µM; with NCI-H522 lung, 8.55 µM; in the test with TK-10 renal, 27.7 µM. Moreover, the TGI worked out at 72.7 µM in the test with T-47D breast and 29.5 µM in the test with CAKI-1 renal.
Consider `Cc1c(-c2ccccn2)ccc2ccccc12`, for which the TGI in the test with SF-539 CNS, with SK-MEL-28 melanoma, in the test with 786-0 renal, with HOP-62 NSCLC, with TK-10 renal and with T-47D breast was over 100 µM in each case. Moreover, in the test on CAKI-1 renal, the TGI was over 100 µM.
With `CCOC(=O)/C=C1/SC(=Nc2ccc(C#N)cc2)N(Cc2ccco2)C1=O`, the GI50 with SF-539 CNS was 3.09 µM; with SK-MEL-28 melanoma it was 2.92 µM; with 786-0 renal it was 1.93 µM; in the test on HOP-62 NSCLC, 2.94 µM; with NCI-H522 lung, 1.83 µM; in the test on TK-10 renal it was 2.54 µM. In addition, the GI50 in the test with T-47D breast is 2.57 µM. For the same compound, the TGI was found to be 12.4 µM in the test on SF-539 CNS; 10.5 µM in the test with SK-MEL-28 melanoma; 4.17 µM in the test on 786-0 renal; 9.21 µM in the test with HOP-62 NSCLC; 4.12 µM in the test on NCI-H522 lung; 8.19 µM in the test on TK-10 renal. The same compound gave a TGI in the test with T-47D breast of 8.24 µM.
As to `CC/C=C\C[C@H]1C/C=C2/C(=O)C(Cl)=C[C@@H]2C/C=C\CCCC(=O)O1`, the GI50 is 0.523 µM in the test on SF-539 CNS; 0.46 µM in the test with SK-MEL-28 melanoma; 0.521 µM with 786-0 renal; 0.49 µM in the test with HOP-62 NSCLC; 0.156 µM with NCI-H522 lung; 0.597 µM in the test with TK-10 renal. The GI50 was 0.58 µM in the test on T-47D breast and 0.45 µM with CAKI-1 renal. Further, the TGI in the test with SF-539 CNS was found to be 1.41 µM; with SK-MEL-28 melanoma it was 1.15 µM; with 786-0 renal, 1.19 µM; in the test with HOP-62 NSCLC, 1.31 µM; in the test on NCI-H522 lung, 0.556 µM; in the test with TK-10 renal, 1.41 µM. Also, the TGI in the test on T-47D breast amounted to 2.36 µM; in the test on CAKI-1 renal, 1.51 µM.
Consider `CCc1c(C)c2cc(-n3c(-c4ccc(OC)cc4)csc3=N)c(O)c(C)c2oc1=O`, for which the GI50 is 2.14 µM in the test on SF-539 CNS; 1.55 µM in the test with SK-MEL-28 melanoma; 1.7 µM in the test with 786-0 renal; 1.67 µM with HOP-62 NSCLC; 0.646 µM with NCI-H522 lung; 4.36 µM in the test on TK-10 renal. For the same compound, the GI50 with T-47D breast was 0.551 µM. Also, the TGI in the test with SF-539 CNS amounted to 7.25 µM; in the test on SK-MEL-28 melanoma, 4.42 µM; with 786-0 renal, 4.72 µM; with HOP-62 NSCLC, 8.53 µM; with NCI-H522 lung, 2.46 µM; in the test with TK-10 renal it was 8.35 µM. This compound also showed a TGI in the test with T-47D breast of 4.24 µM.
As for `CN1CCN(c2ccc(NC3=CC(=O)c4ncncc4C3=O)cc2)CC1`, the GI50 is 0.612 µM with SF-539 CNS; 1.46 µM in the test with SK-MEL-28 melanoma; 0.248 µM in the test on 786-0 renal; 0.597 µM with NCI-H522 lung; 2.01 µM in the test on TK-10 renal; 0.231 µM in the test with T-47D breast. The GI50 in the test with CAKI-1 renal is 1.34 µM. The TGI in the test with SF-539 CNS is 1.69 µM; in the test on SK-MEL-28 melanoma it was 3.08 µM; in the test with 786-0 renal it was 0.645 µM; with NCI-H522 lung it was 1.72 µM; with TK-10 renal, 3.81 µM; with T-47D breast, 0.651 µM. This compound also returned a TGI in the test on CAKI-1 renal of 2.68 µM.
As for `Clc1ccc(-c2nc(NCc3ccco3)c3ccccc3n2)c(Cl)c1`, the GI50 with SK-MEL-28 melanoma is 24.5 µM; with 786-0 renal it was 20 µM; with HOP-62 NSCLC, 15.8 µM; in the test with NCI-H522 lung, 33.7 µM; with TK-10 renal it was 2.38 µM; with T-47D breast, 45.6 µM. Further, in the test with CAKI-1 renal, the GI50 is 8.82 µM. The TGI was over 100 µM in the test on SK-MEL-28 melanoma; 56.1 µM in the test on 786-0 renal; 34.7 µM in the test on HOP-62 NSCLC; over 100 µM in the test with NCI-H522 lung; 7.1 µM in the test with TK-10 renal; over 100 µM in the test with T-47D breast. Further, the TGI in the test with CAKI-1 renal was determined as 31 µM.
Regarding `COc1ccc(-c2[nH]ncc2Nc2cc(OC)c(OC)c(OC)c2)cc1`, the GI50 in the test on SK-MEL-28 melanoma is 2.57 µM; in the test with 786-0 renal it was 6.2 µM; with HOP-62 NSCLC, 3.32 µM; in the test on NCI-H522 lung, 1.98 µM; with TK-10 renal, over 32 µM; with T-47D breast, 4.07 µM. Also, the GI50 in the test with CAKI-1 renal is 5.64 µM. Moreover, the TGI in the test with SK-MEL-28 melanoma was over 100 µM; in the test with 786-0 renal, over 65.4 µM; in the test on HOP-62 NSCLC, over 95.3 µM; in the test with NCI-H522 lung, 49.3 µM; with TK-10 renal, 96.9 µM; with T-47D breast, over 100 µM. Also, in the test with CAKI-1 renal, the TGI is over 100 µM.
